Test results as given in US11207310B2 (PRILENIA NEUROTHERAPEUTICS LTD., priority 2016, dated 2021).
Where two headings read alike, the source gives them in different places.

Tested on: patients with HD
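Note: UHDRS Total Functional Capacity items for finances and ADL, each scored 0 to 3, where 3 means normal function and 0 means unable (finances) or total care (ADL).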

CCCN1CCC(c2cccc(S(C)(=O)=O)c2)CC1 [pridopidine, 4-[3-(methylsulfonyl)phenyl]-1-propyl-piperidine]
Change from baseline in UHDRS TFC Finance ADL, Δ to placebo (45 mg bid, Week 26, Stage 2 BL TFC 7-10 (FIG. 11f)): 0.7
Change from baseline in UHDRS TFC Finance ADL, Δ to placebo (45 mg bid, Week 52, ALL): 0.46
UHDRS TFC Finance ADL, change from baseline, Δ to placebo (45 mg bid, Week 52, BL TFC<7, p value 0.9863): 0.01
UHDRS TFC Finance ADL, change from baseline, Δ to placebo (45 mg bid, Week 52, BL TFC≥7, p value 0.0004): 0.72
Change from baseline in UHDRS TFC Finance ADL, Δ to placebo (45 mg bid, Week 52, Stage 1 BL TFC 11-13): 0.77
Δ to placebo: UHDRS TFC Finance and ADL score, change from baseline (67.5 mg bid, BL CAG Repeat >44, week 26): 0.21
Δ to placebo: UHDRS TFC Finance and ADL score, change from baseline (67.5 mg bid, BL TFC≥9, week 26): 0.23
Δ to placebo: UHDRS TFC Finance and ADL score, change from baseline (67.5 mg bid, BL TFC≥9 and BL TMS 1st 3 Qs, week 26): 0.18
Δ to placebo: UHDRS TFC Finance and ADL score, change from baseline (67.5 mg bid, BL TFC≥9 and CAG Repeat >44, week 26): 0.57
Δ to placebo: UHDRS TFC Finance and ADL score, change from baseline (67.5 mg bid, BL TFC≥9 and CAG Repeats <44 and BL TMS 1st 3 Qs, week 26): 0.57
Δ to placebo: UHDRS TFC Finance and ADL score, change from baseline (67.5 mg bid, BL TFC≥9 or CAG Repeat >44, week 26): 0.08
Δ to placebo: UHDRS TFC Finance and ADL score, change from baseline (67.5 mg bid, CAG Repeats <44 and BL TMS 1st 3 Qs, week 26): 0.18
Δ to placebo: UHDRS TFC Finance and ADL score, change from baseline (67.5 mg bid, TMS 1st 2Qs, week 26): 0.1
Δ to placebo: UHDRS TFC Finance and ADL score, change from baseline (67.5 mg bid, TMS 1st 2Qs, week 52): 0.25
Δ to placebo: UHDRS TFC Finance and ADL score, change from baseline (67.5 mg bid, TMS 1st 3Qs, week 26): 0.04
Δ to placebo: UHDRS TFC Finance and ADL score, change from baseline (67.5 mg bid, TMS 1st 3Qs, week 52): −0.03
Δ to placebo: UHDRS TFC Finance and ADL score, change from baseline (67.5 mg bid, TMS 1st Q, week 26): 0.5
Δ to placebo: UHDRS TFC Finance and ADL score, change from baseline (67.5 mg bid, TMS 1st Q, week 52): 0.61
Change from baseline in UHDRS TFC Finance ADL, Δ to placebo (67.5 mg bid, Week 26, ALL): 0.16
UHDRS TFC Finance ADL, change from baseline, Δ to placebo (67.5 mg bid, Week 26, BL TFC<7, p value 0.8408): −0.06
UHDRS TFC Finance ADL, change from baseline, Δ to placebo (67.5 mg bid, Week 26, BL TFC≥7, p value 0.0817): 0.32
Change from baseline in UHDRS TFC Finance ADL, Δ to placebo (67.5 mg bid, Week 26, Stage 1 BL TFC 11-13): 0.65
Change from baseline in UHDRS TFC Finance ADL, Δ to placebo (67.5 mg bid, Week 26, Stage 2 BL TFC 7-10 (FIG. 11c)): 0.26
Change from baseline in UHDRS TFC Finance ADL, Δ to placebo (67.5 mg bid, Week 26, Stage 2 BL TFC 7-10 (FIG. 11f)): 0.54
Change from baseline in UHDRS TFC Finance ADL, Δ to placebo (67.5 mg bid, Week 52, ALL): 0.1
UHDRS TFC Finance ADL, change from baseline, Δ to placebo (67.5 mg bid, Week 52, BL TFC<7, p value 0.497): −0.25
UHDRS TFC Finance ADL, change from baseline, Δ to placebo (67.5 mg bid, Week 52, BL TFC≥7, p value 0.1926): 0.27
Change from baseline in UHDRS TFC Finance ADL, Δ to placebo (67.5 mg bid, Week 52, Stage 1 BL TFC 11-13): −0.18
Δ to placebo: UHDRS TFC Finance and ADL score, change from baseline (90 mg bid, BL CAG Repeat >44, week 26): 0.67
Δ to placebo: UHDRS TFC Finance and ADL score, change from baseline (90 mg bid, BL TFC≥9, week 26): 0.51
Δ to placebo: UHDRS TFC Finance and ADL score, change from baseline (90 mg bid, BL TFC≥9 and BL TMS 1st 3 Qs, week 26): 0.45
Δ to placebo: UHDRS TFC Finance and ADL score, change from baseline (90 mg bid, BL TFC≥9 and CAG Repeat >44, week 26): 0.83
Δ to placebo: UHDRS TFC Finance and ADL score, change from baseline (90 mg bid, BL TFC≥9 and CAG Repeats <44 and BL TMS 1st 3 Qs, week 26): 0.81
Δ to placebo: UHDRS TFC Finance and ADL score, change from baseline (90 mg bid, BL TFC≥9 or CAG Repeat >44, week 26): 0.52
Δ to placebo: UHDRS TFC Finance and ADL score, change from baseline (90 mg bid, CAG Repeats <44 and BL TMS 1st 3 Qs, week 26): 0.6
Δ to placebo: UHDRS TFC Finance and ADL score, change from baseline (90 mg bid, TMS 1st 2Qs, week 26): 0.26
Δ to placebo: UHDRS TFC Finance and ADL score, change from baseline (90 mg bid, TMS 1st 2Qs, week 52): 0.47
Δ to placebo: UHDRS TFC Finance and ADL score, change from baseline (90 mg bid, TMS 1st 3Qs, week 26): 0.35
Δ to placebo: UHDRS TFC Finance and ADL score, change from baseline (90 mg bid, TMS 1st 3Qs, week 52): 0.21
Δ to placebo: UHDRS TFC Finance and ADL score, change from baseline (90 mg bid, TMS 1st Q, week 26): 0.63
Δ to placebo: UHDRS TFC Finance and ADL score, change from baseline (90 mg bid, TMS 1st Q, week 52): 0.57
Change from baseline in UHDRS TFC Finance ADL, Δ to placebo (90 mg bid, Week 26, ALL): 0.31
UHDRS TFC Finance ADL, change from baseline, Δ to placebo (90 mg bid, Week 26, BL TFC<7, p value 0.3747): 0.28
UHDRS TFC Finance ADL, change from baseline, Δ to placebo (90 mg bid, Week 26, BL TFC≥7, p value 0.0093): 0.47
Change from baseline in UHDRS TFC Finance ADL, Δ to placebo (90 mg bid, Week 26, Stage 1 BL TFC 11-13): 0.97
Change from baseline in UHDRS TFC Finance ADL, Δ to placebo (90 mg bid, Week 26, Stage 2 BL TFC 7-10 (FIG. 11c)): 0.3
Change from baseline in UHDRS TFC Finance ADL, Δ to placebo (90 mg bid, Week 26, Stage 2 BL TFC 7-10 (FIG. 11f)): 0.56
Change from baseline in UHDRS TFC Finance ADL, Δ to placebo (90 mg bid, Week 52, ALL): 0.17
UHDRS TFC Finance ADL, change from baseline, Δ to placebo (90 mg bid, Week 52, BL TFC<7, p value 0.4368): −0.29
UHDRS TFC Finance ADL, change from baseline, Δ to placebo (90 mg bid, Week 52, BL TFC≥7, p value 0.0088): 0.53
Change from baseline in UHDRS TFC Finance ADL, Δ to placebo (90 mg bid, Week 52, Stage 1 BL TFC 11-13): 0.4
Δ to placebo: UHDRS TFC Finance and ADL score, change from baseline (112.5 mg bid, BL CAG Repeat >44, week 26): 0.47
Δ to placebo: UHDRS TFC Finance and ADL score, change from baseline (112.5 mg bid, BL TFC≥9, week 26): 0.57
Δ to placebo: UHDRS TFC Finance and ADL score, change from baseline (112.5 mg bid, BL TFC≥9 and BL TMS 1st 3 Qs, week 26): 0.54
Δ to placebo: UHDRS TFC Finance and ADL score, change from baseline (112.5 mg bid, BL TFC≥9 and CAG Repeat >44, week 26): 1.02
Δ to placebo: UHDRS TFC Finance and ADL score, change from baseline (112.5 mg bid, BL TFC≥9 and CAG Repeats <44 and BL TMS 1st 3 Qs, week 26): 1.08
Δ to placebo: UHDRS TFC Finance and ADL score, change from baseline (112.5 mg bid, BL TFC≥9 or CAG Repeat >44, week 26): 0.4
Δ to placebo: UHDRS TFC Finance and ADL score, change from baseline (112.5 mg bid, CAG Repeats <44 and BL TMS 1st 3 Qs, week 26): 0.57
Δ to placebo: UHDRS TFC Finance and ADL score, change from baseline (112.5 mg bid, TMS 1st 2Qs, week 26): 0.19
Δ to placebo: UHDRS TFC Finance and ADL score, change from baseline (112.5 mg bid, TMS 1st 2Qs, week 52): 0.44
Δ to placebo: UHDRS TFC Finance and ADL score, change from baseline (112.5 mg bid, TMS 1st 3Qs, week 26): 0.41
Δ to placebo: UHDRS TFC Finance and ADL score, change from baseline (112.5 mg bid, TMS 1st 3Qs, week 52): 0.09
Δ to placebo: UHDRS TFC Finance and ADL score, change from baseline (112.5 mg bid, TMS 1st Q, week 26): 1.1
Δ to placebo: UHDRS TFC Finance and ADL score, change from baseline (112.5 mg bid, TMS 1st Q, week 52): 0.74
Change from baseline in UHDRS TFC Finance ADL, Δ to placebo (112.5 mg bid, Week 26, ALL): 0.38
UHDRS TFC Finance ADL, change from baseline, Δ to placebo (112.5 mg bid, Week 26, BL TFC<7, p value 0.9361): 0.03
UHDRS TFC Finance ADL, change from baseline, Δ to placebo (112.5 mg bid, Week 26, BL TFC≥7, p value 0.0007): 0.62
Change from baseline in UHDRS TFC Finance ADL, Δ to placebo (112.5 mg bid, Week 26, Stage 1 BL TFC 11-13): 1.12
Change from baseline in UHDRS TFC Finance ADL, Δ to placebo (112.5 mg bid, Week 26, Stage 2 BL TFC 7-10 (FIG. 11c)): 0.46
Change from baseline in UHDRS TFC Finance ADL, Δ to placebo (112.5 mg bid, Week 26, Stage 2 BL TFC 7-10 (FIG. 11f)): 0.18
Change from baseline in UHDRS TFC Finance ADL, Δ to placebo (112.5 mg bid, Week 52, ALL): 0.1
UHDRS TFC Finance ADL, change from baseline, Δ to placebo (112.5 mg bid, Week 52, BL TFC<7, p value 0.5626): −0.22
UHDRS TFC Finance ADL, change from baseline, Δ to placebo (112.5 mg bid, Week 52, BL TFC≥7, p value 0.0841): 0.36
Change from baseline in UHDRS TFC Finance ADL, Δ to placebo (112.5 mg bid, Week 52, Stage 1 BL TFC 11-13): 0.64
